Literature values, collected in patent US10980267B2, “Molecular particle superior delivery system” (priority 2018, dated 2021).

Experiments:
[1] = in humans, WHO report
[2] = especially child seizures
[3] = consumed in foods and drinks

C=C(C)[C@@H]1CCC(C)=C[C@H]1c1c(O)cc(CCCCC)cc1O [CBD, cannabidiol]
abuse or dependence potential [1]: no effects indicative of any abuse or dependence potential | effect on number of seizures [2]: reduce the number of seizures | safety of consumption / toxicity [3]: completely safe to consume in foods and drinks and is considered to be non-toxic
